In patent publication US8163779B2, “Glucokinase activators” (Takeda San Diego, Inc., priority 2006, dated 2012):

target: T1, glucokinase (GK) (Homo sapiens, UniProt P35557); assay: enzymatic glucokinase activity assay (ATP consumption, KinaseGlo luminescence); format: biochemical; conditions: recombinant GK residues 12-465; 5 μM ATP, 5 mM Glucose; Kact = concentration that displays 50% of the maximal increase in GK activity; read-out: pKact
T1 construct: I.D. No. 1 corresponds to residues 12-465 of glucokinase; made in house; host or cells: E. coli DH10b-T1r
T1 sequence (P35557 with tags, fused parts or gaps isoform P35557-2): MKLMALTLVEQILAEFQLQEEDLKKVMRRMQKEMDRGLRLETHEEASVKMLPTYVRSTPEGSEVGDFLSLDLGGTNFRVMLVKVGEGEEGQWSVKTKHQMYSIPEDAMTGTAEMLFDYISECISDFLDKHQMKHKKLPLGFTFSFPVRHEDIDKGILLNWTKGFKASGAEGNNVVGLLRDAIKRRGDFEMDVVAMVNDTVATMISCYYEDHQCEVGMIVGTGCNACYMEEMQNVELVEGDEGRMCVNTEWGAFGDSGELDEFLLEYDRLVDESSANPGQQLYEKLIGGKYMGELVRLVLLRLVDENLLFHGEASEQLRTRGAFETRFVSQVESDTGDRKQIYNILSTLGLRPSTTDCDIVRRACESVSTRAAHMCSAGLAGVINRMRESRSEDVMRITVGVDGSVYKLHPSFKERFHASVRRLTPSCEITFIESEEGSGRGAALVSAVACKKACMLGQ
Method in brief: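 Recombinant human glucokinase expressed in E. coli was run in 25 mM Hepes pH 7.2 with 10 mM MgCl2, 1 mM DTT, 5 μM ATP, 5 mM glucose and 2% DMSO for 60 min at room temperature. Remaining ATP was read by KinaseGlo luminescence; pKact came from non-linear curve fits.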

EC50 [µM] | SMILES
1.58 to 15.8 | Cc1occc1S(=O)(=O)c1cc(C)n([C@@H](CC2CCOCC2)C(=O)Nc2ncc(Cl)s2)c(=O)c1 [Example 64, (S)-N-(5-chlorothiazol-2-yl)-2-(6-methyl-4-(2-methylfuran-3-ylsulfonyl)-2-oxopyridin-1(2H)-yl)-3-(tetrahydro-2H-pyran-4-yl)propanamide]
> 15.8 | Cc1cc(S(=O)(=O)C2CCOCC2)cc(=O)n1[C@H](CC1CCCC1)C(=O)Nc1ncc(Cl)s1 [Example 192, (R)-N-(5-chlorothiazol-2-yl)-3-cyclopentyl-2-(6-methyl-2-oxo-4-(tetrahydro-2H-pyran-4-ylsulfonyl)pyridin-1(2H)-yl)propanamide]
> 15.8 | CC(C)(O)c1cnc(NC(=O)C(CC2CCOCC2)n2ccc(S(=O)(=O)C3CC3)cc2=O)s1 (stereo not shown) [Example 117, 2-(4-(cyclopropylsulfonyl)-2-oxopyridin-1(2H)-yl)-N-(5-(2-hydroxypropan-2-yl)thiazol-2-yl)-3-(tetrahydro-2H-pyran-4-yl)propanamide]
< 1.58 | COc1ccc2nc(NC(=O)[C@H](CC3CCOCC3)n3ccc(S(=O)(=O)C4CC4)cc3=O)sc2n1 [Example 49, (S)-2-(4-(cyclopropylsulfonyl)-2-oxopyridin-1(2H)-yl)-N-(5-methoxythiazolo[5,4-b]pyridin-2-yl)-3-(tetrahydro-2H-pyran-4-yl)propanamide]
1.58 to 15.8 | O=C(Nc1ncc(F)s1)[C@@H](CC1CCOCC1)n1ccc(S(=O)(=O)C2CCCC2)cc1=O [Example 33, (R)-2-(4-(cyclopentylsulfonyl)-2-oxopyridin-1(2H)-yl)-N-(5-fluorothiazol-2-yl)-3-(tetrahydro-2H-pyran-4-yl)propanamide]
1.58 to 15.8 | Cc1cc(S(=O)(=O)C2CC2)cc(=O)n1C(CC1CCOCC1)C(=O)Nc1ncc(Cl)s1 (stereo not shown) [Example 157, N-(5-chlorothiazol-2-yl)-2-(4-(cyclopropylsulfonyl)-6-methyl-2-oxopyridin-1(2H)-yl)-3-(tetrahydro-2H-pyran-4-yl)propanamide]
< 1.58 | Cc1cc(S(=O)(=O)C2CCCC2)cc(=O)n1[C@@H](CC1CCOCC1)C(=O)Nc1ncc(F)s1 [Example 40, (S)-2-(4-(cyclopentylsulfonyl)-6-methyl-2-oxopyridin-1(2H)-yl)-N-(5-fluorothiazol-2-yl)-3-(tetrahydro-2H-pyran-4-yl)propanamide]
< 1.58 | Cc1cc(S(=O)(=O)C2CC2)cc(=O)n1C(CC1CCCC1)C(=O)Nc1ncc(Cl)s1 (stereo not shown) [Example 178, N-(5-chlorothiazol-2-yl)-3-cyclopentyl-2-(4-(cyclopropylsulfonyl)-6-methyl-2-oxopyridin-1(2H)-yl)propanamide]
1.58 to 15.8 | COc1ccc2nc(NC(=O)C(CC3CCOCC3)n3ccc(S(=O)(=O)C4CC4)cc3=O)sc2c1 (stereo not shown) [Example 127, 2-(4-(cyclopropylsulfonyl)-2-oxopyridin-1(2H)-yl)-N-(6-methoxybenzo[d]thiazol-2-yl)-3-(tetrahydro-2H-pyran-4-yl)propanamide]
> 15.8 | Cc1cc(S(=O)(=O)C2CCS(=O)(=O)CC2)cc(=O)n1[C@H](CC1CCCCC1)C(=O)Nc1ncc(Cl)s1 [Example 188, (R)-N-(5-chlorothiazol-2-yl)-2-(4-(1,1-dioxotetrahydrothiopyran-4-ylsulfonyl)-6-methyl-2-oxopyridin-1(2H)-yl)-3-cyclohexylpropanamide]
1.58 to 15.8 | O=C(Nc1nc2ccc(Cl)cc2s1)C(CC1CCOCC1)n1ccc(S(=O)(=O)C2CC2)cc1=O (stereo not shown) [Example 130, N-(6-chlorobenzo[d]thiazol-2-yl)-2-(4-(cyclopropylsulfonyl)-2-oxopyridin-1(2H)-yl)-3-(tetrahydro-2H-pyran-4-yl)propanamide]
> 15.8 | Cc1csc(-c2cc(C)n([C@@H](CC3CCCCC3)C(=O)Nc3nccs3)c(=O)c2)c1 [Example 111, (S)-3-cyclohexyl-2-(6-methyl-4-(4-methylthiophen-2-yl)-2-oxopyridin-1(2H)-yl)-N-(thiazol-2-yl)propanamide]
< 1.58 | Cc1cc(S(=O)(=O)Cc2ccco2)cc(=O)n1[C@@H](CC1CCOCC1)C(=O)Nc1ncc(Cl)s1 [Example 141, (S)-N-(5-chlorothiazol-2-yl)-2-(4-(furan-2-ylmethylsulfonyl)-6-methyl-2-oxopyridin-1(2H)-yl)-3-(tetrahydro-2H-pyran-4-yl)propanamide]
1.58 to 15.8 | Cc1cc(S(=O)(=O)C2CCS(=O)(=O)CC2)cc(=O)n1C(CC1CCCCC1)C(=O)Nc1ncc(Cl)s1 (stereo not shown) [Example 160, N-(5-chlorothiazol-2-yl)-2-(4-(1,1-dioxotetrahydrothiopyran-4-ylsulfonyl)-6-methyl-2-oxopyndin-1(2H)-yl)-3-cyclohexylpropanamide]
> 15.8 | Cc1cc(-c2cn[nH]c2)cc(=O)n1[C@@H](CC1CCCCC1)C(=O)Nc1nccs1 [Example 113, (S)-3-cyclohexyl-2-(6-methyl-2-oxo-4-(1H-pyrazol-4-yl)pyridin-1(2H)-yl)-N-(thiazol-2-yl)propanamide]
< 1.58 | Cc1cc(S(=O)(=O)c2cccc(F)c2)cc(=O)n1C(CC1CCOCC1)C(=O)Nc1ncc(Cl)s1 (stereo not shown) [Example 158, N-(5-chlorothiazol-2-yl)-2-(4-(3-fluorophenylsulfonyl)-6-methyl-2-oxopyridin-1(2H)-yl)-3-(tetrahydro-2H-pyran-4-yl)propanamide]
1.58 to 15.8 | COc1ccc2nc(NC(=O)[C@@H](CC3CCOCC3)n3ccc(S(=O)(=O)C4CC4)cc3=O)sc2n1 [Example 48, (R)-2-(4-(cyclopropylsulfonyl)-2-oxopyridin-1(2H)-yl)-N-(5-methoxythiazolo[5,4-b]pyridin-2-yl)-3-(tetrahydro-2H-pyran-4-yl)propanamide]
> 15.8 | Cc1cc(-c2ccc(F)c(Cl)c2)cc(=O)n1[C@@H](CC1CCCCC1)C(=O)Nc1nccs1 [Example 106, (S)-2-(4-(3-chloro-4-fluorophenyl)-6-methyl-2-oxopyridin-1(2H)-yl)-3-cyclohexyl-N-(thiazol-2-yl)propanamide]
1.58 to 15.8 | Cc1cc(-c2cccnc2)cc(=O)n1[C@@H](CC1CCCCC1)C(=O)Nc1nccs1 [Example 100, (S)-3-cyclohexyl-2-(6-methyl-2-oxo-4-(pyridin-3-yl)pyridin-1(2H)-yl)-N-(thiazol-2-yl)propanamide]
1.58 to 15.8 | Cc1cc(S(=O)(=O)Cc2ccco2)cc(=O)n1C(CC1CCOCC1)C(=O)Nc1ncc(Cc2ccc(F)cc2)s1 (stereo not shown) [Example 144, N-(5-(4-fluorobenzyl)thiazol-2-yl)-2-(4-(furan-2-ylmethylsulfonyl)-6-methyl-2-oxopyridin-1(2H)-yl)-3-(tetrahydro-2H-pyran-4-yl)propanamide]
> 15.8 | Cc1cc(-c2cccc(NS(C)(=O)=O)c2)cc(=O)n1[C@@H](CC1CCCCC1)C(=O)Nc1nccs1 [Example 112, (S)-3-cyclohexyl-2-(6-methyl-4-(3-(methylsulfonamido)phenyl)-2-oxopyridin-1(2H)-yl)-N-(thiazol-2-yl)propanamide]
1.58 to 15.8 | Cc1c(S(=O)(=O)C2CCCC2)c(C)c(=O)n([C@H](CC2CCOCC2)C(=O)Nc2ncc(Cl)s2)c1C [Example 136, (R)-N-(5-chlorothiazol-2-yl)-2-(4-(cyclopentylsulfonyl)-3,5,6-trimethyl-2-oxopyridin-1(2H)-yl)-3-(tetrahydro-2H-pyran-4-yl)propanamide]
< 1.58 | Cc1c(S(=O)(=O)C2CCCC2)c(C)c(=O)n(C(CC2CCOCC2)C(=O)Nc2ncc(Cl)s2)c1C (stereo not shown) [Example 118, N-(5-chlorothiazol-2-yl)-2-(4-(cyclopentylsulfonyl)-3,5,6-trimethyl-2-oxopyridin-1(2H)-yl)-3-(tetrahydro-2H-pyran-4-yl)propanamide]
1.58 to 15.8 | COCCC(C)(C)S(=O)(=O)c1ccn(C(CC2CCOCC2)C(=O)Nc2nc3ccc(OC)nc3s2)c(=O)c1 (stereo not shown) [Example 88, 2-(4-(4-methoxy-2-methylbutan-2-ylsulfonyl)-2-oxopyridin-1(2H)-yl)-N-(5-methoxythiazolo[5,4-b]pyridin-2-yl)-3-(tetrahydro-2H-pyran-4-yl)propanamide]
> 15.8 | Cc1cc(S(=O)(=O)C2CCOCC2)cc(=O)n1[C@H](CC1CCCC1)C(=O)Nc1ncc(F)s1 [Example 194, (R)-3-cyclopentyl-N-(5-fluorothiazol-2-yl)-2-(6-methyl-2-oxo-4-(tetrahydro-2H-pyran-4-ylsulfonyl)pyridin-1(2H)-yl)propanamide]
< 1.58 | O=C(Nc1ncc(F)s1)[C@H](CC1CCOCC1)n1ccc(S(=O)(=O)C2CCCC2)cc1=O [Example 34, (S)-2-(4-(cyclopentylsulfonyl)-2-oxopyridin-1(2H)-yl)-N-(5-fluorothiazol-2-yl)-3-(tetrahydro-2H-pyran-4-yl)propanamide]
1.58 to 15.8 | Cc1cc(S(=O)(=O)C2CC2)c(N)c(=O)n1[C@@H](CC1CCCC1)C(=O)Nc1ncc(F)s1 [Example 155, (S)-2-(3-amino-4-(cyclopropylsulfonyl)-6-methyl-2-oxopyridin-1(2H)-yl)-3-cyclopentyl-N-(5-fluorothiazol2-yl)propanamide]
< 1.58 | O=C(Nc1ccc(Cl)cn1)[C@H](CC1CCOCC1)n1ccc(S(=O)(=O)C2CCCC2)cc1=O [Example 42, (S)-N-(5-chloropyridin-2-yl)-2-(4-(cyclopentylsulfonyl)-2-oxopyridin-1(2H)-yl)-3-(tetrahydro-2H-pyran-4-yl)propanamide]
